Tests used:
Assay in all cases: relative viability (nuclei count vs DMSO), 5 days (fraction); higher = more cells survive
[1] = compound: C1=CC2=NC=CN=C2C=C1/C=C/3\C(=O)NC(=O)S3 + C[C@]1(O)C[C@@H](c2nc(-c3ccc4ccc(-c5ccccc5)nc4c3)c3c(N)nccn32)C1 [Linsitinib] (partner 1 µM)
In short: (§1)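 Each reported value is a median over duplicate plates. It expresses relative viability: treated-well nuclei count divided by vehicle-well nuclei count. Lung cancer cell lines in 1536-well plates were dosed by pin tool a day after seeding, alone with one drug or with a fixed anchor-drug dose plus five library-drug doses (not always all listed) in √10 steps, and nuclei were counted after 5 days.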

[2] = compound: C1=CC2=NC=CN=C2C=C1/C=C/3\C(=O)NC(=O)S3 + Cc1cc(Nc2cc(N3CCN(C)CC3)nc(Sc3ccc(NC(=O)C4CC4)cc3)n2)n[nH]1 [Tozasertib] (partner 0.1 µM)
In short: as §1

[3] = compound: CCN1CCN(c2ccc(Nc3cc(N(C)C(=O)Nc4c(Cl)c(OC)cc(OC)c4Cl)ncn3)cc2)CC1 [BGJ398] + COc1cc2c(Oc3ccc(NC(=O)C4(C(=O)Nc5ccc(F)cc5)CC4)cc3F)ccnc2cc1OCCCN1CCOCC1 [Foretinib] (partner 0.25 µM)
In short: as §1

[4] = compound: CCN1CCN(c2ccc(Nc3cc(N(C)C(=O)Nc4c(Cl)c(OC)cc(OC)c4Cl)ncn3)cc2)CC1 [BGJ398] + Cc1nc(NC(=O)N2CCC[C@H]2C(N)=O)sc1-c1ccnc(C(C)(C)C(F)(F)F)c1 [Alpelisib] (partner 2 µM)
In short: as §1

**Q.** For UMC-11, which relative viability ([1]; first compound 0.02 µM) is on record?
**A.** The relative viability was 1.02.

**Q.** What about the relative viability ([1]; first compound 0.06325 µM) of the same cell line?
**A.** The relative viability was 1.12.

**Q.** What about the relative viability ([1]; first compound 0.2 µM) of the same cell line?
**A.** Its relative viability is 1.05.

**Q.** What about the relative viability ([1]; first compound 0.6325 µM) of the same cell line?
**A.** The relative viability was 0.989.

**Q.** What about the relative viability ([1]; first compound 2 µM) of the same cell line?
**A.** Its relative viability is 1.11.

**Q.** What about the relative viability ([2]; first compound 0.02 µM) of the same cell line?
**A.** The relative viability was 0.205.

**Q.** And the relative viability ([2]; first compound 0.06325 µM)?
**A.** The relative viability was 0.193.

**Q.** What about the relative viability ([2]; first compound 0.2 µM) of the same cell line?
**A.** The relative viability was 0.202.

**Q.** What about the relative viability ([2]; first compound 0.6325 µM) of the same cell line?
**A.** Its relative viability is 0.203.

**Q.** And the relative viability ([2]; first compound 2 µM)?
**A.** Its relative viability is 0.192.

**Q.** And the relative viability ([3]; first compound 0.01 µM)?
**A.** Its relative viability is 0.962.

**Q.** What about the relative viability ([3]; first compound 0.03162 µM) of the same cell line?
**A.** The relative viability was 1.

**Q.** And the relative viability ([3]; first compound 0.1 µM)?
**A.** Its relative viability is 1.14.

**Q.** What about the relative viability ([3]; first compound 0.3162 µM) of the same cell line?
**A.** Its relative viability is 0.977.

**Q.** What about the relative viability ([3]; first compound 1 µM) of the same cell line?
**A.** The relative viability was 0.924.

**Q.** What about the relative viability ([4]; first compound 0.01 µM) of the same cell line?
**A.** Its relative viability is 0.999.

**Q.** And the relative viability ([4]; first compound 0.03162 µM)?
**A.** The relative viability was 0.88.

**Q.** What about the relative viability ([4]; first compound 0.1 µM) of the same cell line?
**A.** Its relative viability is 1.06.

**Q.** What about the relative viability ([4]; first compound 0.3162 µM) of the same cell line?
**A.** Its relative viability is 0.983.

**Q.** What about the relative viability ([4]; first compound 1 µM) of the same cell line?
**A.** Its relative viability is 0.907.
